Data taken from patent publication US9758492B2, “IDO inhibitors” (Bristol-Myers Squibb Company, priority 2013, dated 2017).

Molecular target: IDO (Homo sapiens, UniProt P14902)
Test: LLE_IDO_ABS_DR (IDO assay)

IDO, sequence (P14902 whole entry): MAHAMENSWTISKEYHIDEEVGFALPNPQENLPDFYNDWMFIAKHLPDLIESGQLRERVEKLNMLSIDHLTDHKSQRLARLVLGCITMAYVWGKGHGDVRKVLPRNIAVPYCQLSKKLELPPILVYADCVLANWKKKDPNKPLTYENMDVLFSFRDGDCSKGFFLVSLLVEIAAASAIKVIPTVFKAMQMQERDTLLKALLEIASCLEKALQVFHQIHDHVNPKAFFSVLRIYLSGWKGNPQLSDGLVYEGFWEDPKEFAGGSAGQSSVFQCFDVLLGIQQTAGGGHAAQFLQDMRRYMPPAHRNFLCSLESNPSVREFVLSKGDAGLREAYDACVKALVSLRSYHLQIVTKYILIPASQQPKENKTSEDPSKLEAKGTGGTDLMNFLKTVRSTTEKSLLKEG

| IC50 [nM] | Compound |
| --- | --- |
| 50 | CCCCN(CCCC)c1ccc(-c2ccccc2C(=O)O)cc1NC(=O)Nc1ccc(C)cc1 [Example 89, 4′-(dibutylamino)-3′-(3-p-tolylureido) biphenyl-2-carboxylic acid] |
| 40 | Cc1ccc(NC(=O)Nc2cc(-c3ccccc3-c3nnn[nH]3)ccc2N(CCC(F)(F)F)Cc2ccccn2)cc1 [Example 506, 1-(4-((pyridin-2-ylmethyl)(3,3,3-trifluoropropyl)amino)-2′-(1H-tetrazol-5-yl)-[1,1′-biphenyl]-3-yl)-3-(p-tolyl)urea] |
| 80 | CC(C)CN(CC(C)C)c1ccc(-c2ccccc2-c2nnn[nH]2)cc1NC(=O)Nc1nncs1 [Example 145, 1-(4-(diisobutylamino)-2′-(1H-tetrazol-5-yl)biphenyl-3-yl)-3-(1,3,4-thiadiazol-2-yl)urea] |
| 20 | Cc1ccc(NC(=O)Nc2cc(-c3ccccc3-c3nnn[nH]3)ccc2N(CC(C)C)CC2CC2)cc1 [Example 92, 1-(4-((cyclopropylmethyl) (isobutyl)amino)-2′-(1H-tetrazol-5-yl)biphenyl-3-yl)-3-p-tolylurea] |
| 2.91 | Cc1ccc(NC(=O)Nc2cc(-c3ccccc3-c3nnn[nH]3)c(F)cc2N(CC(C)C)C2CCCCC2)cc1 [Example 227, 1-(4-(cyclohexyl(isobutyl)ami-no)-6-fluoro-2′-(1H-tetrazol-5-yl)biphenyl-3-yl)-3-p-tolylurea] |
| 350 | Cc1ccc(NC(=O)Nc2cc(-c3ccccc3C(=O)O)ccc2N(CC2CC2)CC2CC2)cc1 [Example 67, 4′-(bis (cyclopropylmethyl)amino)-3′-(3-p-tolylureido)biphenyl-2-carboxylic acid] |
| 930 | CC(C)CN(CC(C)C)c1ccc(-c2ccccc2-c2nnn[nH]2)cc1NC(=O)Nc1ccc(F)c(C#N)c1 [Example 250, 1-(3-Cyano-4-fluorophenyl-3-(4-diisobutylamino)-2′-(1H-tetrazol-5-yl)-[1,1′-biphenyl]-3-yl)urea] |
| 50 | Cc1ccc(NC(=O)Nc2cc(-c3sccc3C(=O)O)ccc2N(CCC2CC2)CC(C)C)cc1 [Example 131, 2-(4-((2-cyclopropylethyl) (isobutyl)amino)-3-(3-p-tolylureido)phenyl) thiophene-3-carboxylic acid] |
| 7770 | Cc1ccc(NC(=O)Nc2cc(-c3ccccc3-c3nnn[nH]3)ccc2N2CCC(F)(F)C2)cc1 [Example 315, 1-(4-(3,3-difluoropyrrolidin-1-yl)-2′-(1H-tetrazol-5-yl)-[1,1′-biphenyl]-3-yl)-3-(p-tolyl)urea] |
| 7.45 | CC(C)CN(c1ccc(-c2ccccc2-c2nnn[nH]2)cc1NC(=O)Nc1ccc(F)cc1F)C(C)C [Example 156, 1-(2,4-difluorophenyl)-3-(4-(isobutyl (isopropyl)amino)-2′-(1H-tetrazol-5-yl)biphenyl-3-yl)urea] |
| 10000 | Cc1ccc(NC(=O)Nc2cc(-c3ccccc3-c3nnn[nH]3)ccc2N2CCC(c3nc(C)no3)C2)cn1 (stereo not drawn) [Example 388] |
| 60 | Cc1ccc(NC(=O)Nc2cc(-c3ccccc3-c3nnn[nH]3)ccc2N(CCC(F)(F)F)CC(C)C)cc1 [Example 199, 1-(4-(isobutyl(3,3,3-trifluoropropyl)amino)-2′-(1H-tetrazol-5-yl)-[1,1′-biphenyl]-3-yl)-3-(p-tolyl)urea] |
| 290 | Cc1ccc(NC(=O)Nc2cc(-c3ccccc3C(=O)O)ccc2N(CCC(C)C(F)(F)F)C2CCCCC2)cc1 (stereo not drawn) [Example 188, 4′-(cyclohexyl(4,4,4-trifluoro-3-methylbutyl)amino)-3′-(3-(p-tolyl)ureido)-[1,1′-biphenyl]-2-carboxylic acid] |
| 20 | Cc1ccc(NC(=O)Nc2cc(-c3ccccc3C(=O)O)ccc2N(CCC(C)C(F)(F)F)CC(C)C)cc1 (stereo not drawn) [Example 205, 4′-(isobutyl (4,4,4-trifluoro-3-methylbutyl)amino)-3′-(3-(p-tolyl)ureido)-[1,1′-biphenyl]-2-carboxylic acid] |
| 10 | Cc1ccc(NC(=O)Nc2cc(-c3cscc3C(=O)O)ccc2N(CC(C)C)CC(C)C)cc1 [Example 35, 4-(4-(Diisobutylamino)-3-(3-p-tolylureido)phenyl)thiophene-3-carboxylic acid] |
